Source: patent publication US11534493B2, “Pharmaceutical compositions of roflumilast in aqueous blends of water-miscible, pharmaceutically acceptable solvents” (ARCUTIS, INC., priority 2017, dated 2022)

Columns and labels:
[1] = Experimental: (§1) Roflumilast (Batch A14367P from Interquim S.A.), 0.0205 grams, was weighed into a liquid scintillation vial. DEGEE (Transcutol P, lot 146063, Gattefosse) was added dropwise with mixing to the vial containing roflumilast. After mixing each addition of DEGEE, the tightly capped vial was returned to a water bath set at 25° C.
0.0111 grams of roflumilast (Batch A14367P from Interquim S.A.) was weighed into a liquid scintillation vial. An equimolar blend of DEGEE (Transcutol P, lot 146063, Gattefosse) and distilled water was prepared and added dropwise with mixing to the vial containing roflumilast. An equimolar blend is 88.3% DEGEE and 11.7% water on a weight/weight percent basis. After mixing each addition of equimolar DEGEE:Water, the tightly capped vial was returned to a water bath set at 25° C.

[2] = remark: listed apart in the source
Experimental: as §1, with “0.0061” for “0.0205”, “PG (propylene glycol, Spectrum Chemical” for “DEGEE (Transcutol P,”, “IEC0004)” for “146063, Gattefosse)”, “PG,” for “DEGEE,”
2.3200 grams of an equimolar blend of PG (Spectrum Chemical lot IEC0004) and distilled water was prepared and added to a scintillation vial containing 0.0012 grams of roflumilast (Batch A14367P from Interquim S.A.). […] An equimolar blend is 80.7% PG and 19.3% water on a weight/weight percent basis.

[3] = aqueous solubility of roflumilast reported in WO95/01338; type: physicochemical; details: cited 0.53 mg/l (21° C.) value converted to w/w %
Source text: Roflumilast and its synthesis were described in U.S. Pat. No. 5,712,298 (the “'298 patent”), incorporated herein by reference.* It has long been recognized that pharmaceutical compounds having phosphodiesterase (PDE)-inhibiting properties, such as roflumilast, are useful for treating psoriasis and atopic dermatitis ('298 patent, col 11 lines 52-61) and other chronic inflammatory and allergen-induced dermatoses. For treatment of such dermatoses, roflumilast emulsions, suspensions, gels or solutions for topical application have been described ('298 patent, col 12, lines 37-64). […] This low aqueous solubility has been problematic for the development of parenteral preparations and topical emulsions, suspensions, gels or solutions containing water. In U.S. Pat. No. 9,205,044 (incorporated herein by reference), the poor water solubility of roflumilast was overcome by using an alkoxylated fat, specifically polyoxyethylated 12-hydroxystearic acid, as a co-solvent for parenteral administration.

With `O=C(Nc1c(Cl)cncc1Cl)c1ccc(OC(F)F)c(OCC2CC2)c1` [roflumilast, N-(3,5-dichloropyrid-4-yl)-3-cyclopropylmethoxy-4-difluoromethoxybenzamid-e] the “calculated ideal solubility in equimolar DEGEE:Water” value [1] was 0.019 w/w %, the “observed saturation solubility greater than calculated ideal solubility in equimolar DEGEE:Water” value [1] was 232 fold and the “observed saturation solubility in DEGEE” value [1] was 7.1 w/w %. For the same molecule, the “observed saturation solubility in equimolar DEGEE:Water” value [1] was 4.4 w/w %, the “calculated ideal solubility in equimolar PG:Water” value [2] was 0.0040 w/w % and the “observed saturation solubility greater than calculated ideal solubility in equimolar PG:Water” value [2] was 15 fold. The “observed saturation solubility in PG” value [2] was 0.3 w/w %, the “observed saturation solubility in equimolar PG:Water” value [2] was 0.06 w/w % and the “saturation solubility of roflumilast in water” value [3] was 0.000053 w/w %.
